Measured values: patent US7550451B2, “Progesterone receptor modulators with increased antigonadotropic activity for female birth control and hormone replacement therapy” (Bayer Schering Pharma AG, priority 2002, dated 2009)

Columns and labels:
Glucocorticoid receptor = target: T1, Glucocorticoid receptor (Rattus norvegicus, UniProt P06536); experiment: Receptor binding affinity, glucocorticoid receptor (competitive binding, 3H-dexamethasone); conditions: Dexamethasone = 100%; thymus cytosol of adrenalectomized rat
T1 construct: Thymus cytosol of the adrenalectomized rat; from tissue; host or cells: thymus cytosol of adrenalectomized rat
T1 sequence (P06536 1-795): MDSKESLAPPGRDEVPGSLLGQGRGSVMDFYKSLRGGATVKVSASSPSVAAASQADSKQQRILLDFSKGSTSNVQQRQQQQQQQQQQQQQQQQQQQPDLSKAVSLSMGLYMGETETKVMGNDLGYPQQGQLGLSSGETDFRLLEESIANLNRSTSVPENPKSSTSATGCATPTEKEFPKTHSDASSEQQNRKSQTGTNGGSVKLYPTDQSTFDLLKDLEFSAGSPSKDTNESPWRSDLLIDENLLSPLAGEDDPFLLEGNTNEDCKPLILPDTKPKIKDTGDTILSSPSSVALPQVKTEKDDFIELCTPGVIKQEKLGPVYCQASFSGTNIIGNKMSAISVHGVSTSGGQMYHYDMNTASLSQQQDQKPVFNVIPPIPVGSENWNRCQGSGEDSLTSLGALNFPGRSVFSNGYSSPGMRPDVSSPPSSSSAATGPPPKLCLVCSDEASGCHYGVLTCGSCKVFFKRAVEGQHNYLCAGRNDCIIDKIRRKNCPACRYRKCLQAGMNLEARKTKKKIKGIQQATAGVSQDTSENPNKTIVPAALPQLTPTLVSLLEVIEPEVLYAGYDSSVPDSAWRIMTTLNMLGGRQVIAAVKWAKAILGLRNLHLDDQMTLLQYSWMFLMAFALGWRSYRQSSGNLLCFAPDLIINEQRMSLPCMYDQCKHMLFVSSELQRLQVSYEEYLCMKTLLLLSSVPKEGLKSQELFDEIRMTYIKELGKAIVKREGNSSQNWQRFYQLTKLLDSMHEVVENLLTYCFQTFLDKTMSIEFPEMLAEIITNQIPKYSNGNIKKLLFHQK
Protocol: (§1) The receptor binding affinity was determined by competitive binding of a specifically binding ^3H-labeled hormone (tracer) and the compound to be tested on receptors in the cytosol from animal target organs. In this case, receptor saturation and reaction equilibrium were sought.
(§2) The tracers and increasing concentrations of the compound to be tested (competitor) were co-incubated with the receptor-containing cytosol fraction at 0-4° C. over 18 hours. After separation of the unbonded tracer with carbon-dextran suspension, the receptor-bonded tracer portion was measured for each concentration, and the IC50 was determined from the concentration sequence. As a quotient of the IC50 values of the reference substance and the compound to be tested (×100%), the relative molar binding affinity (RBA) was calculated (RBA of the reference substance=100%).
Thymus cytosol of the adrenalectomized rat, thymi stored at −30° C.; buffer: TED. Tracer: ^3H-Dexamethasone, 20 nmol; reference substance: dexamethasone.

adult female rats = experiment: Nidation-inhibiting test (antifertile effects in the perinidation phase); format: in vivo; conditions: day 5-7 of pregnancy, rat
Protocol: The determination of the progesterone-antagonistic activities was carried out on adult female rats in the nidation-inhibiting test. The principle of the test is described as follows: progesterone preserves pregnancy in all stages. An early-abortive action can accordingly be expected from competitive progesterone antagonists. Female rats (Schoe strain: WIST Tierzucht GmbH Schönwalde) with a weight of 180-200 g were subjected daily to a cycle control and paired up in proestrus. The beginning of pregnancy was determined by detecting sperm in the vaginal smear on the same day (=day 1 of pregnancy=d1 p.c.). From the 5th-7th day of pregnancy, the test substances were injected subcutaneously daily. On the 9th day, vaginal smears were taken, then the animals were autopsied and the uteri were prepared. The degeneration of implants and pathological, hemorrhagic and otherwise abnormal nidation sites were counted as abortions and are shown in Table 2.

Progesterone receptor = target: T2, Progesterone receptor (Oryctolagus cuniculus, UniProt P06186); experiment: Receptor binding affinity, progesterone receptor (competitive binding, 3H-ORG 2058); conditions: Progesterone = 100%; uterus cytosol of estradiol-primed rabbit
T2 construct: Uterus cytosol of the estradiol-primed rabbit; from tissue; host or cells: uterus cytosol of estradiol-primed rabbit
T2 sequence (P06186 1-930): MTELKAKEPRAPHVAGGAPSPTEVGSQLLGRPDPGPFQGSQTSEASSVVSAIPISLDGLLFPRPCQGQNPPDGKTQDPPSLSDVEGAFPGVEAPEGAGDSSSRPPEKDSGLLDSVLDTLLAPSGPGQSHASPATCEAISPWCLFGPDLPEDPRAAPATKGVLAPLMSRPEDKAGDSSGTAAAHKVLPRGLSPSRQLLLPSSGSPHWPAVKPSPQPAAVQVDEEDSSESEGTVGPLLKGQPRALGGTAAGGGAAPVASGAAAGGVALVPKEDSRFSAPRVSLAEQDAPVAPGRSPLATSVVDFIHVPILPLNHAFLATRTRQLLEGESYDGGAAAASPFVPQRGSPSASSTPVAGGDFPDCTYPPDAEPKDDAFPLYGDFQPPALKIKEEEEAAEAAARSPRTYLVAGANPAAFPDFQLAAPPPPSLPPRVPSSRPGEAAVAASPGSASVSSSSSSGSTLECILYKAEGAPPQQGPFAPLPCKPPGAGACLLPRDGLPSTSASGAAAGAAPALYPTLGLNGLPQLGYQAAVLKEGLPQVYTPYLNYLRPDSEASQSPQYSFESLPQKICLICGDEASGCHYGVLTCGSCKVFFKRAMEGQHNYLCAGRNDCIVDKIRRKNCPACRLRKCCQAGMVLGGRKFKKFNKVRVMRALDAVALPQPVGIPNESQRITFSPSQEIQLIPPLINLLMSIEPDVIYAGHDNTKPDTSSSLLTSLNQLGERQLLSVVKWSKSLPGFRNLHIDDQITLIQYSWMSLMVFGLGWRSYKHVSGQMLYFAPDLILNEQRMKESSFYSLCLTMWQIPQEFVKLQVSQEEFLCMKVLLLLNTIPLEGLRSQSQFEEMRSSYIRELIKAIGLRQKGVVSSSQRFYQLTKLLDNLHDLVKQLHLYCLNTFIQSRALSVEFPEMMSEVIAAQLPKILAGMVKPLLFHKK
Protocol: as §1, §2
Uterus cytosol of the estradiol-primed rabbit; homogenized in TED buffer (20 mmol of Tris/HCl, pH 7.4; 1 mmol of ethylenediamine tetraacetate, 2 mmol of dithiothreitol) with 250 mmol of saccharose; stored at −30° C. Tracer: ^3H-ORG 2058, 5 nmol; reference substance: progesterone.

Androgen receptor = target: T3, Androgen receptor (Rattus norvegicus, UniProt P15207); experiment: Receptor binding affinity, androgen receptor (competitive binding, 3H-metribolone); conditions: prostate cytosol of castrated rat; for AR relative molar binding affinity (RBA) a) against RU 1881: reference RU 1881 (metribolone); for AR relative molar binding affinity (RBA) b) against dihydrotestosterone (DHT): reference dihydrotestosterone
T3 construct: Prostate cytosol of the castrated rat; from tissue; host or cells: prostate cytosol of castrated rat
T3 sequence (P15207 1-902): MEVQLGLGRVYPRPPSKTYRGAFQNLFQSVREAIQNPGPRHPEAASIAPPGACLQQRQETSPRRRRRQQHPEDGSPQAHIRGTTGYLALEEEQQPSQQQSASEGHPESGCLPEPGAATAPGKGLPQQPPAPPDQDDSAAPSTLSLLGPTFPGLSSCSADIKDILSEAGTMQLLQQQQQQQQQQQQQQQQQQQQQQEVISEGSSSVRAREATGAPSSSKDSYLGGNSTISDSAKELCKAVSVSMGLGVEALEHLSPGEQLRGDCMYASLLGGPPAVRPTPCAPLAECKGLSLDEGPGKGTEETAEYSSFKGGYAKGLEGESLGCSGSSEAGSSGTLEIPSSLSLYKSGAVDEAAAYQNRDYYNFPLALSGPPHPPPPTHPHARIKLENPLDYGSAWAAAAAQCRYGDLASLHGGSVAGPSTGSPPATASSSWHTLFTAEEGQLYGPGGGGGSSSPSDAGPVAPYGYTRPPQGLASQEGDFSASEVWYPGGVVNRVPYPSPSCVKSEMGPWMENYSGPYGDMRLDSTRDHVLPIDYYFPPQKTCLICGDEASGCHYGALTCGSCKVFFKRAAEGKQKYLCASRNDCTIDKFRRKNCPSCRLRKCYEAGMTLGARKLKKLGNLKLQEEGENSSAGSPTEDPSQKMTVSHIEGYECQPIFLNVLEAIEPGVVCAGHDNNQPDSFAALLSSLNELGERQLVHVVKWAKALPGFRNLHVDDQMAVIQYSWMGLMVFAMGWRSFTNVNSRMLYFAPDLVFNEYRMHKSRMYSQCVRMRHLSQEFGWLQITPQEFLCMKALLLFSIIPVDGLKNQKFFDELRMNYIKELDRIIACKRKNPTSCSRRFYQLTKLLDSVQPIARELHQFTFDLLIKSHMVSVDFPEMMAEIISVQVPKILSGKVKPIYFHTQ
Protocol: as §1, §2
Prostate cytosol of the castrated rat; prostates stored at −30° C.; buffer: TED with 10% glycerol as well as 2 μmol of triamcinolone acetonide. Tracer: ^3H-metribolone 4 nmol; reference substances: metribolone (RU 1881) or 5α-dihydrotestosterone.

SMILES | GR relative molar binding affinity (RBA) (Glucocorticoid receptor) [%] | Rate of Animals with Complete Inhibition of Nidation (adult female rats; 1.0 mg/animal/day s.c.) | PR relative molar binding affinity (RBA) (Progesterone receptor) [%] | AR relative molar binding affinity (RBA) a) against RU 1881 (Androgen receptor) | AR relative molar binding affinity (RBA) b) against dihydrotestosterone (DHT) (Androgen receptor) | Rate of Animals with Complete Inhibition of Nidation (adult female rats; 0.3 mg/animal/day s.c.) | Rate of Animals with Complete Inhibition of Nidation (adult female rats; 3.0 mg/animal/day s.c.)
CO[C@H]1CC[C@H]2[C@@H]3CCC4=CC(=O)CCC4=C3[C@@H](c3ccc(/C=N/O)cc3)C[C@]12C [Example 5, 4-(17β-Methoxy-3-oxoestra-4,9-dien-11β-yl)benzaldehyde-1(E)-oxime] | 14 | 0/4 | 159 | a) 21% | b) 32% | – | –
CC1(O)CCC2C3CCC4=C(Br)C(=O)CCC4=C3C(c3ccc(C=NO)cc3)CC21C (stereo not drawn) [Example 6, 4-(4′-Bromo-17β-hydroxy-17α-methyl-3-oxoestra-4,9-dien-11β-yl)benzaldehyde-1(E)-oxime] | 0.76 | 5/5 | 106 | a) 14% | b) 22% | – | –
CCO[C@H]1CC[C@H]2[C@@H]3CCC4=CC(=O)CCC4=C3[C@@H](c3ccc(/C=N/O)cc3)C[C@]12C [Example 15, 4-(17β-Ethoxy-3-oxoestra-4,9-dien-11β-yl)benzaldehyde-1(E)-oxime] | 17 | – | 143 | a) 13% | b) 21% | – | –
C[C@]12C[C@H](c3ccc(/C=N/O)cc3)C3=C4CCC(=O)C=C4CC[C@H]3[C@@H]1CC[C@@H]2OC(=O)c1ccccc1 [Example 16] | 3 | – | 8 | a) 1.4% | b) 2.2% | – | –
CC12CC(c3ccc(C=NO)cc3)C3=C4CCC(=O)C=C4CCC3C1CCC2OCc1ccccc1 (stereo not drawn) [Example 17, 4-(17β-Benzyloxy-3-oxoestra-4,9-dien-11β-yl)benzaldehyde-1(E)-oxime] | 8 | – | 31 | a) 2% | b) 3% | – | –
CC12CC(c3ccc(C=NO)cc3)C3=C4CCC(=O)C(Br)=C4CCC3C1CCC2O (stereo not drawn) [Example 19, 4-(4′-Bromo-17β-hydroxy-3-oxoestra-4,9-dien-11β-yl)benzaldehyde-1(E)-oxime] | 0.5 | – | 51 | a) 9% | b) 16% | – | –
CCNC(=O)O/N=C/c1ccc([C@H]2C[C@@]3(C)[C@@H](CC[C@@]3(O)CO)[C@@H]3CCC4=CC(=O)CCC4=C32)cc1 [Example 20, 4-[17β-Hydroxy-17α-hydroxymethyl-3-oxoestra-4,9-dien-11β-yl]benzaldehyde-1-(E)-[O-(ethylamino)-carbonyl]oxime] | 5 | – | 12 | a) 4% | b) 7% | – | –
CC#C[C@]1(O)CC[C@H]2[C@@H]3CCC4=CC(=O)CCC4=C3[C@@H](c3ccc(N(C)C)cc3)C[C@@]21C [RU 38 486, reference compound] | – | 2/5 | – | – | – | 0/5 | 5/5
